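Each compound was tested at five concentrations against cells in 96-well plates for 48 hours. Here, GI50 denotes the concentration required for 50% inhibition of growth. TGI: concentration producing complete growth inhibition.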
Legend:
Test in all cases: NCI tumour cell line growth inhibition, 48 h
A498 renal = system: A498 renal
COLO 205 colon = system: COLO 205 colon
DU-145 prostate = system: DU-145 prostate
HT29 colon = system: HT29 colon
MALME-3M melanoma = system: MALME-3M melanoma
MDA-MB-231 breast = system: MDA-MB-231 breast
NCI-H23 lung = system: NCI-H23 lung
SK-OV-3 ovarian = system: SK-OV-3 ovarian
SR leukemia = system: SR leukemia
SW-620 colon = system: SW-620 colon
TK-10 renal = system: TK-10 renal
UACC-62 melanoma = system: UACC-62 melanoma
UO-31 renal = system: UO-31 renal
RXF 393 renal = system: RXF 393 renal

CC1CN=C(NS(=O)(=O)c2cc(C(=O)Nc3ccc(Cl)cc3)c(Cl)cc2S)NN1 (centres undefined)
TGI (A498 renal): 37.1 µM | TGI (COLO 205 colon): > 100 µM | TGI (DU-145 prostate): > 100 µM | TGI (HT29 colon): > 100 µM | TGI (MALME-3M melanoma): 39.1 µM | TGI (MDA-MB-231 breast): > 100 µM | TGI (NCI-H23 lung): > 100 µM | TGI (SK-OV-3 ovarian): > 100 µM | TGI (SR leukemia): > 100 µM | TGI (SW-620 colon): > 100 µM | TGI (TK-10 renal): > 100 µM | TGI (UACC-62 melanoma): 84.1 µM | TGI (UO-31 renal): > 100 µM

CN(C)c1ccc(/C=C/c2ccc(S(N)(=O)=O)cc2)cc1
TGI (A498 renal): 40.3 µM | TGI (COLO 205 colon): 99.2 µM | TGI (DU-145 prostate): 49.8 µM | GI50 (HT29 colon): 30.8 µM | TGI (HT29 colon): > 100 µM | TGI (MALME-3M melanoma): 37.6 µM | TGI (MDA-MB-231 breast): 34.3 µM | GI50 (NCI-H23 lung): 14.2 µM | TGI (NCI-H23 lung): 44 µM | TGI (RXF 393 renal): > 100 µM | TGI (SK-OV-3 ovarian): 31.4 µM | GI50 (SR leukemia): 8.58 µM | TGI (SR leukemia): > 100 µM | TGI (SW-620 colon): 92.9 µM | TGI (TK-10 renal): 39.8 µM | TGI (UO-31 renal): 34.5 µM

COC(=O)c1c(C(=O)OC)c2ccccn2c1-c1cc(OC)c(Br)c(=O)o1
TGI (A498 renal): > 100 µM | TGI (COLO 205 colon): > 100 µM | TGI (DU-145 prostate): > 100 µM | TGI (HT29 colon): > 100 µM | TGI (MALME-3M melanoma): > 100 µM | TGI (MDA-MB-231 breast): > 100 µM | TGI (NCI-H23 lung): > 100 µM | TGI (RXF 393 renal): > 100 µM | TGI (SK-OV-3 ovarian): > 100 µM | TGI (SR leukemia): > 100 µM | TGI (SW-620 colon): > 100 µM | TGI (TK-10 renal): > 100 µM | TGI (UACC-62 melanoma): > 100 µM | TGI (UO-31 renal): > 100 µM

CCOC(=O)NN(C(=O)OCC)C(C(=O)C1=CCCCC1)N(NC(=O)OCC)C(=O)OCC
TGI (A498 renal): > 100 µM | TGI (COLO 205 colon): > 100 µM | TGI (DU-145 prostate): > 100 µM | TGI (HT29 colon): > 100 µM | TGI (MALME-3M melanoma): > 100 µM | TGI (MDA-MB-231 breast): > 100 µM | TGI (NCI-H23 lung): > 100 µM | TGI (RXF 393 renal): > 100 µM | TGI (SK-OV-3 ovarian): > 100 µM | TGI (SR leukemia): > 100 µM | TGI (SW-620 colon): > 100 µM | TGI (TK-10 renal): > 100 µM | TGI (UO-31 renal): > 100 µM

CC(=O)Nc1ccc2nc(-c3ccccn3)c(-c3ccccn3)nc2c1
TGI (A498 renal): > 100 µM | TGI (COLO 205 colon): > 100 µM | TGI (DU-145 prostate): > 100 µM | TGI (MALME-3M melanoma): > 100 µM | TGI (MDA-MB-231 breast): > 100 µM | TGI (RXF 393 renal): > 100 µM | TGI (SR leukemia): > 100 µM | TGI (SW-620 colon): > 100 µM | TGI (TK-10 renal): > 100 µM | TGI (UACC-62 melanoma): > 100 µM | TGI (UO-31 renal): > 100 µM

Nc1ccc2[nH]c(-c3cccc(C(F)(F)F)c3)cc(=O)c2c1
TGI (A498 renal): 82.9 µM | TGI (COLO 205 colon): > 100 µM | GI50 (DU-145 prostate): 43.6 µM | TGI (DU-145 prostate): > 100 µM | TGI (HT29 colon): > 100 µM | TGI (MALME-3M melanoma): > 100 µM | TGI (MDA-MB-231 breast): > 100 µM | TGI (NCI-H23 lung): > 100 µM | TGI (SK-OV-3 ovarian): > 100 µM | TGI (SR leukemia): 97.8 µM | TGI (SW-620 colon): > 100 µM | TGI (TK-10 renal): > 100 µM | TGI (UACC-62 melanoma): > 100 µM | TGI (UO-31 renal): > 100 µM

CC1(C)[C@@H]2C[C@H]1[C@@H](Cc1cccc(C[C@H]3c4cc(-c5ccccn5)ncc4[C@H]4C[C@@H]3C4(C)C)c1)c1cc(-c3ccccn3)ncc12
TGI (A498 renal): > 93.2 µM | TGI (COLO 205 colon): > 65.5 µM | TGI (DU-145 prostate): > 24.7 µM | GI50 (HT29 colon): 12.5 µM | TGI (HT29 colon): > 100 µM | GI50 (MALME-3M melanoma): 1.78 µM | TGI (MALME-3M melanoma): 8.14 µM | TGI (MDA-MB-231 breast): > 100 µM | TGI (NCI-H23 lung): > 77.4 µM | TGI (RXF 393 renal): > 100 µM | TGI (SK-OV-3 ovarian): > 100 µM | GI50 (SR leukemia): > 100 µM | TGI (SR leukemia): > 100 µM | TGI (SW-620 colon): > 61.4 µM | TGI (TK-10 renal): > 100 µM | TGI (UACC-62 melanoma): > 100 µM | TGI (UO-31 renal): 8.82 µM

COc1ccccc1Cc1ccc(C2C=CC3(CC(=O)C=C3C)C(=O)C2)o1 (centres undefined)
TGI (A498 renal): 47.7 µM | TGI (COLO 205 colon): 50.5 µM | TGI (DU-145 prostate): > 100 µM | TGI (HT29 colon): > 100 µM | TGI (MALME-3M melanoma): 47.5 µM | TGI (MDA-MB-231 breast): 50.1 µM | TGI (NCI-H23 lung): 58.3 µM | TGI (RXF 393 renal): 56.3 µM | TGI (SR leukemia): 43.9 µM | TGI (SW-620 colon): 40.7 µM | TGI (TK-10 renal): > 100 µM | TGI (UACC-62 melanoma): 31.8 µM | TGI (UO-31 renal): > 100 µM

CCOC(=O)CC(c1ccccc1)C(C)(C(=O)OCC)C(=O)OCC (centres undefined)
TGI (COLO 205 colon): > 100 µM | TGI (DU-145 prostate): > 100 µM | TGI (HT29 colon): > 100 µM | TGI (MALME-3M melanoma): > 100 µM | TGI (MDA-MB-231 breast): > 100 µM | TGI (NCI-H23 lung): > 100 µM | TGI (RXF 393 renal): 60.9 µM | TGI (SK-OV-3 ovarian): > 100 µM | TGI (SR leukemia): > 100 µM | TGI (SW-620 colon): > 100 µM | TGI (TK-10 renal): > 100 µM | TGI (UACC-62 melanoma): > 100 µM | TGI (UO-31 renal): > 100 µM

CCOC(=O)C(NC(=O)c1ccccc1)(Nc1ccc(S(=O)(=O)Nc2ncccn2)cc1)C(F)(F)F (centres undefined)
TGI (COLO 205 colon): > 100 µM | TGI (DU-145 prostate): > 100 µM | TGI (HT29 colon): > 100 µM | TGI (MALME-3M melanoma): > 100 µM | TGI (MDA-MB-231 breast): > 100 µM | TGI (NCI-H23 lung): > 100 µM | TGI (RXF 393 renal): > 100 µM | TGI (SK-OV-3 ovarian): > 100 µM | TGI (SR leukemia): > 100 µM | TGI (SW-620 colon): > 100 µM | TGI (TK-10 renal): > 100 µM | TGI (UACC-62 melanoma): > 100 µM | TGI (UO-31 renal): > 100 µM

c1cc(-c2ccc(-c3ccc(-c4ccc(-c5ccncc5)o4)cc3)o2)ccn1
TGI (A498 renal): > 100 µM | TGI (COLO 205 colon): 30.2 µM | TGI (DU-145 prostate): 28.2 µM | TGI (HT29 colon): 44.7 µM | TGI (MALME-3M melanoma): 34.7 µM | TGI (MDA-MB-231 breast): 63.8 µM | TGI (NCI-H23 lung): 39.1 µM | TGI (RXF 393 renal): > 100 µM | TGI (SK-OV-3 ovarian): 45.2 µM | TGI (SR leukemia): 58.8 µM | TGI (SW-620 colon): > 100 µM | TGI (TK-10 renal): 31.2 µM | TGI (UACC-62 melanoma): 32.9 µM | TGI (UO-31 renal): 38 µM

COC(=O)N1CC(=O)C(C(=O)NC23CC4CC(CC(C4)C2)C3)C1 (centres undefined)
TGI (A498 renal): > 100 µM | TGI (COLO 205 colon): > 100 µM | TGI (DU-145 prostate): > 100 µM | TGI (HT29 colon): > 100 µM | TGI (MALME-3M melanoma): > 100 µM | TGI (MDA-MB-231 breast): > 100 µM | TGI (NCI-H23 lung): > 100 µM | TGI (RXF 393 renal): > 100 µM | TGI (SR leukemia): > 100 µM | TGI (SW-620 colon): > 100 µM | TGI (TK-10 renal): > 100 µM | TGI (UACC-62 melanoma): > 100 µM | TGI (UO-31 renal): > 100 µM

COc1cc2c(c(OC)c1OC)C(=O)[C@@H]1[C@H]2N1C(=O)NCCCl
TGI (A498 renal): > 100 µM | TGI (COLO 205 colon): 78.3 µM | TGI (DU-145 prostate): > 100 µM | TGI (HT29 colon): > 100 µM | TGI (MALME-3M melanoma): > 100 µM | TGI (MDA-MB-231 breast): > 100 µM | TGI (NCI-H23 lung): > 100 µM | TGI (RXF 393 renal): > 100 µM | TGI (SK-OV-3 ovarian): > 100 µM | TGI (SR leukemia): > 100 µM | TGI (SW-620 colon): > 100 µM | TGI (TK-10 renal): > 100 µM | TGI (UACC-62 melanoma): > 100 µM | TGI (UO-31 renal): > 100 µM

Cc1ccc(C(=O)Nc2ccc(CP(=O)(O)O)cc2)cc1NC(=O)c1cccc(N)c1
TGI (A498 renal): > 100 µM | TGI (COLO 205 colon): > 100 µM | TGI (DU-145 prostate): > 100 µM | TGI (HT29 colon): > 100 µM | TGI (MALME-3M melanoma): > 100 µM | TGI (MDA-MB-231 breast): > 100 µM | TGI (NCI-H23 lung): > 100 µM | TGI (RXF 393 renal): > 100 µM | TGI (SK-OV-3 ovarian): > 100 µM | TGI (SR leukemia): > 100 µM | TGI (SW-620 colon): > 100 µM | TGI (TK-10 renal): > 100 µM | TGI (UACC-62 melanoma): > 100 µM | TGI (UO-31 renal): > 100 µM

NC(N)=NS(=O)(=O)c1ccc(N/N=C2/CCOC2=O)cc1
TGI (A498 renal): > 100 µM | TGI (COLO 205 colon): > 100 µM | TGI (DU-145 prostate): > 100 µM | TGI (HT29 colon): > 100 µM | TGI (MALME-3M melanoma): > 100 µM | TGI (MDA-MB-231 breast): > 100 µM | TGI (NCI-H23 lung): > 100 µM | TGI (RXF 393 renal): > 100 µM | TGI (SK-OV-3 ovarian): > 100 µM | TGI (SR leukemia): > 100 µM | TGI (SW-620 colon): > 100 µM | TGI (TK-10 renal): > 100 µM | TGI (UACC-62 melanoma): > 100 µM | TGI (UO-31 renal): > 100 µM

Cc1nc(SCC(=O)Nc2ccc(Cl)cc2)c2sc(=S)n(-c3ccccc3)c2n1
TGI (A498 renal): > 10 µM | TGI (COLO 205 colon): > 10 µM | TGI (DU-145 prostate): > 10 µM | TGI (HT29 colon): > 10 µM | TGI (MALME-3M melanoma): > 10 µM | TGI (MDA-MB-231 breast): > 10 µM | TGI (NCI-H23 lung): > 10 µM | TGI (RXF 393 renal): > 10 µM | TGI (SK-OV-3 ovarian): > 10 µM | TGI (SR leukemia): > 10 µM | TGI (SW-620 colon): > 10 µM | TGI (TK-10 renal): > 10 µM | TGI (UACC-62 melanoma): > 10 µM
